Source: patent US6214836A, “Water soluble analogues of 20(S)-camptothecin” (Dr. Reddy's Research Foundation, priority 1996, dated 2001)
Like-named read-outs stand apart in the source and are kept apart here.

Legend:
[1] = test system: topoisomerase I; details: cited from earlier work
[2] = test system: humans; details: cited from earlier work
[3] = test system: Human Serum Albumin (HSA); details: in the presence of HSA at 37° C.; vs 20(S) camptothecin and 9-aminocamptothecin; cited from earlier work
[4] = test system: NCI's 60 human tumor cell line; test: NCI 60 human tumor cell line assay (mean, Table 1); type: cell-based; details: read-out: IC 50 (mean value of the minimum drug concentration required to produce 50% cell growth inhibition (GI50))
Protocol: (§1) Inoculates were allowed a preincubation period of 24 h at 37° C. for stabilization. […] Readings are transferred to a microcomputer and fmal reports are generated using especially developed software.
^a IC 50 = the mean value of the minimum drug concentration (μm) of
NCI's 60 human tumor cell line assay.

[5] = test system: SW 620; test: 50% growth inhibition, COLON panel; type: cell-based; details: Homo sapiens, read-out: 50% Growth Inhibition (GI 50); SW 620, colon; 48 h
Protocol: as §1

[6] = test system: HCT 116; test: 50% growth inhibition, COLON panel; type: cell-based; details: Homo sapiens, read-out: 50% Growth Inhibition (GI 50); HCT 116, colon; 48 h
Protocol: as §1

[7] = test system: CAKI-1; test: 50% growth inhibition, RENAL panel; type: cell-based; details: Homo sapiens, read-out: 50% Growth Inhibition (GI 50); CAKI-1, renal; 48 h
Protocol: as §1

[8] = test system: 786-O; test: 50% growth inhibition, RENAL panel; type: cell-based; details: Homo sapiens, 786-0, read-out: 50% Growth Inhibition (GI 50), 48 h
Protocol: as §1

[9] = test system: ACHN; test: 50% growth inhibition, RENAL panel; type: cell-based; details: Homo sapiens, read-out: 50% Growth Inhibition (GI 50), 48 h
Protocol: as §1

[10] = test system: SF-539; test: 50% growth inhibition, CNS panel; type: cell-based; details: Homo sapiens, read-out: 50% Growth Inhibition (GI 50); SF-539, CNS; 48 h
Protocol: as §1

[11] = test system: SF-268; test: 50% growth inhibition, CNS panel; type: cell-based; details: Homo sapiens, SF-268, 48 h, read-out: 50% Growth Inhibition (GI 50)
Protocol: as §1

[12] = test system: SNB-19; test: 50% growth inhibition, CNS panel; type: cell-based; details: Homo sapiens, read-out: 50% Growth Inhibition (GI 50); SNB-19, CNS; 48 h
Protocol: as §1

[13] = test system: H 460; test: 50% growth inhibition, NSLC panel; type: cell-based; details: Homo sapiens, NCI-H460, read-out: 50% Growth Inhibition (GI 50); H 460, NSLC; 48 h
Protocol: as §1

[14] = test system: HOP 62; test: 50% growth inhibition, NSLC panel; type: cell-based; details: Homo sapiens, read-out: 50% Growth Inhibition (GI 50); HOP 62, NSLC; 48 h
Protocol: as §1

[15] = test system: H 522; test: 50% growth inhibition, NSLC panel; type: cell-based; details: Homo sapiens, NCI-H522, read-out: 50% Growth Inhibition (GI 50); H 522, NSLC; 48 h
Protocol: as §1

[16] = test system: T 47D; test: 50% growth inhibition, BREAST panel; type: cell-based; details: Homo sapiens, T47D, read-out: 50% Growth Inhibition (GI 50), 48 h
Protocol: as §1

[17] = test system: MCF7/ADR; test: 50% growth inhibition, BREAST panel; type: cell-based; details: Homo sapiens, NCI/ADR-RES, read-out: 50% Growth Inhibition (GI 50), 48 h
Protocol: as §1

[18] = test system: MCF-7; test: 50% growth inhibition, BREAST panel; type: cell-based; details: Homo sapiens, MCF7, read-out: 50% Growth Inhibition (GI 50); MCF-7, breast; 48 h
Protocol: as §1

[19] = test system: SR; test: 50% growth inhibition, […] panel; type: cell-based; details: Homo sapiens, read-out: 50% Growth Inhibition (GI 50), leukemia, 48 h
Protocol: as §1

[20] = test system: CCRF-CEM; test: 50% growth inhibition, […] panel; type: cell-based; details: Homo sapiens, read-out: 50% Growth Inhibition (GI 50), leukemia, 48 h
Protocol: as §1

[21] = test system: MOLT-4; test: 50% growth inhibition, […] panel; type: cell-based; details: Homo sapiens, read-out: 50% Growth Inhibition (GI 50); MOLT-4, leukemia; 48 h
Protocol: as §1

[22] = test system: HT 29; test: 50% growth inhibition, COLON panel; type: cell-based; details: Homo sapiens, read-out: 50% Growth Inhibition (GI 50); HT 29, colon; 48 h
Protocol: as §1

[23] = test system: SF 295; test: 50% growth inhibition, CNS panel; type: cell-based; details: Homo sapiens, read-out: 50% Growth Inhibition (GI 50); SF 295, CNS; 48 h
Protocol: as §1

[24] = test system: H 23; test: 50% growth inhibition, NSLC panel; type: cell-based; details: Homo sapiens, NCI-H23, read-out: 50% Growth Inhibition (GI 50); H 23, NSLC; 48 h
Protocol: as §1

[25] = test system: M 14; test: 50% growth inhibition, MELANOMA panel; type: cell-based; details: Homo sapiens, M14, read-out: 50% Growth Inhibition (GI 50); M 14, melanoma; 48 h
Protocol: as §1

[26] = test system: LOX IMVI; test: 50% growth inhibition, MELANOMA panel; type: cell-based; details: Homo sapiens, read-out: 50% Growth Inhibition (GI 50), 48 h
Protocol: as §1

[27] = test system: UACC 62; test: 50% growth inhibition, MELANOMA panel; type: cell-based; details: Homo sapiens, read-out: 50% Growth Inhibition (GI 50); UACC 62, melanoma; 48 h
Protocol: as §1

[28] = test system: HL 60; test: 50% growth inhibition, […] panel; type: cell-based; details: Homo sapiens, read-out: 50% Growth Inhibition (GI 50); HL 60, leukemia; 48 h
Protocol: as §1

[29] = vs 20(RS)-camptothecin of the formula 7; cited from earlier work

## CC[C@@]1(O)C(=O)OCc2c1cc1n(c2=O)Cc2cc3ccccc3nc2-1 [20(S)-Camptothecin]
[1]
  topoisomerase I inhibition (in words): inhibitor of topoisomerise I
[2]
  toxicity (in words): high toxicity problems
[2]; humans
  side effects on humans (in words): unacceptable side effects on humans

## CCc1c2c(nc3ccc(OC(=O)N4CCC(N5CCCCC5)CC4)cc13)-c1cc3c(c(=O)n1C2)COC(=O)[C@]3(O)CC [CPT-11]
[3]
  percentage (%) of lactone form at equilibrium (in words): higher percentage (%) of lactone form at equilibrium

## CC[C@@]1(O)C(=O)OCc2c1cc1n(c2=O)C(CC(=O)OC)c2cc3ccccc3nc2-1 (stereo partly drawn) [Example 1, 5-Carbomethoxymethylcamptothecin]
[4]; Homo sapiens, 48 h
  IC50: 16200 nM

## CC[C@@]1(O)C(=O)OCc2c1cc1n(c2=O)C(CC(C)=O)c2cc3ccccc3nc2-1 (stereo partly drawn) [Example 2, 5-(2'-oxopropyl)camptothecin]
[5]
  GI50: 6020 nM
[6]
  GI50: 5620 nM
[7]
  GI50: 2630 nM
[8]
  GI50: 2950 nM
[9]
  GI50: 2880 nM
[10]
  GI50: 3890 nM
[11]
  GI50: 4260 nM
[12]
  GI50: 6450 nM
[4]; Homo sapiens, 48 h
  IC50: 8310 nM
[13]
  GI50: 1120 nM
[14]
  GI50: 4460 nM
[15]
  GI50: 3980 nM
[16]
  GI50: 2630 nM
[17]
  GI50: 1860 nM
[18]
  GI50: 3630 nM
[19]
  GI50: 180 nM
[20]
  GI50: 380 nM
[21]
  GI50: 770 nM

## CC[C@@]1(O)C(=O)OCc2c1cc1n(c2=O)C(CC(=O)OC)c2cc3cc(O)ccc3nc2-1 (stereo partly drawn) [Example 3, 10-hydroxy-5-carbomethoxymethylcamptothecin]
[4]; Homo sapiens, 48 h
  IC50: 4890 nM

## CC[C@@]1(O)C(=O)OCc2c1cc1n(c2=O)C(CC(C)=O)c2cc3c([N+](=O)[O-])cccc3nc2-1 (stereo partly drawn) [Example 4, 9-nitro-5-(2'-oxopropyl)camptothecin]
[5]
  GI50: 70 nM
[22]
  GI50: 1170 nM
[6]
  GI50: 570 nM
[7]
  GI50: 210 nM
[8]
  GI50: 300 nM
[9]
  GI50: 210 nM
[23]
  GI50: 190 nM
[10]
  GI50: 260 nM
[4]; Homo sapiens, 48 h
  IC50: 1000 nM
[13]
  GI50: 100 nM
[24]
  GI50: 240 nM
[14]
  GI50: 260 nM
[25]
  GI50: 300 nM
[26]
  GI50: 380 nM
[27]
  GI50: 330 nM
[28]
  GI50: 230 nM
[19]
  GI50: 20 nM
[20]
  GI50: 90 nM

## CC[C@@]1(O)C(=O)OCc2c1cc1n(c2=O)C(CC(=O)OC)c2cc3c([N+](=O)[O-])cccc3nc2-1 (stereo partly drawn) [Example 5, 9-Nitro-5-carbomethoxymethylcamptothecin]
[4]; Homo sapiens, 48 h
  IC50: 15800 nM

## CC[C@@]1(O)C(=O)OCc2c1cc1n(c2=O)C(CC(=O)OC)c2cc3c(OC)cccc3nc2-1 (stereo partly drawn) [Example 10, 9-methoxy-5-carbomethoxymethylcamptothecin]
[4]; mean over NCI's 60 human tumor cell lines, 48 h incubation
  IC50: 16200 nM

## CCc1c2c(nc3ccc(O)cc13)-c1cc3c(c(=O)n1C2)COC(=O)[C@]3(O)CC [SN-38, 7-ethyl-10-hydroxycamptothecin]
[3]
  percentage (%) of lactone form at equilibrium (in words): higher percentage (%) of lactone form at equilibrium

## CC[C@@]1(O)C(=O)OCc2c1cc1n(c2=O)Cc2cc3c(CN(C)C)c(O)ccc3nc2-1 [Topotecan, topotecan]
[3]
  percentage (%) of lactone form at equilibrium (in words): higher percentage (%) of lactone form at equilibrium

## CCc1c2c(nc3ccc(OC)cc13)-c1cc3c(c(=O)n1C2)COC(=O)[C@]3(N)CC [formula 6]
[29]
  in vivo antitumor activity (in words): increased in vivo antitumor activity than 20(RS)-camptothecin

## C=C1C(=O)OCc2c1cc1n(c2=O)Cc2c-1nc1ccc(O)cc1c2CC [formula 8]
[1]
  topoisomerase I inhibition (in words): potent camptothecin like inhibition of topoisomerase I activity
